Test results taken from patent publication US20240252488A1 (KOREA RESEARCH INSTITUTE OF CHEMICAL TECHNOLOGY, priority 2020, published 2024).

What was measured:
[1] = tested on: FADD−/− Jurkat cells; assay: Necroptosis inhibition assay, TNF-α-induced necroptosis (CellTiter-Glo 2.0); format: cell-based, human; conditions: TNF-α 15 ng/mL; for Necroptosis inhibition assay (Rescue %) 1 μM: compound 1 μM; for Necroptosis inhibition assay (Rescue %) 10 μM: compound 10 μM
Outline: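 Cmpd 0.1/1/10 μM final, 30 min RT preincubation; TNF-α 15 ng/mL final; 20–24 h, 37° C, 5% CO2. Readout: ATP luminescence (reagent 1:3 in PBS), 0.5 s/well. Cytotoxicity and % necroptosis inhibition calculated from signal.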

[2] = target: T1, MLKL (Homo sapiens, UniProt Q8NB16); assay: MLKL degradation assay in HepG2 cell line (western blot); format: cell-based; design: endogenous in cells; host or cells: HepG2 or HaCaT; conditions: cell line not given; for Degradation assay (Degradation %) 1 μM: compound 1 μM; for Degradation assay (Degradation %) 10 μM: compound 10 μM
T1 sequence (Q8NB16 1-471): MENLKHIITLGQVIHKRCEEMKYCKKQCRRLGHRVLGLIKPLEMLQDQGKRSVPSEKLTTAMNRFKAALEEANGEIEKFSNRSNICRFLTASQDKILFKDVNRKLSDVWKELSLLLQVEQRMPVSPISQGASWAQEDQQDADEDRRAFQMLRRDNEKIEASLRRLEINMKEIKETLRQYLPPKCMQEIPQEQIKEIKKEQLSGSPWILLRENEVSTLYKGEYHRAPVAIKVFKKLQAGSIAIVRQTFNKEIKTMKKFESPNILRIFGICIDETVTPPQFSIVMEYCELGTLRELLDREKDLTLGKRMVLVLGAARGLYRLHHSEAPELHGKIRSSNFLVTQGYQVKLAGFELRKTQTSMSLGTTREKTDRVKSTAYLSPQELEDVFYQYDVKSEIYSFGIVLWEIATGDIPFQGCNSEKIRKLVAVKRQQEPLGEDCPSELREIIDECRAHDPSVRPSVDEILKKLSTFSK
Outline: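 HepG2, cpd final 1 or 10 μM, 20-24 h, 37 °C/5% CO2; RIPA lysis, BCA-normalized, 10-15 μg/lane SDS-PAGE, western blot, ECL read-out.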

[3] = target: T1, MLKL; assay: Measurement of binding affinity with MLKL receptor (competitive binding assay, Kd); design: made in house; host or cells: HEK 293 cell line (T7 phage in E. coli BL21-derived host is also described)
Outline: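 qPCR of MLKL eluted from liganded beads served as the read-out, from which Kd was derived. The protein was made in HEK 293 cells with a DNA tag, and test compounds competed with the bead-bound ligand at 0.9% final DMSO.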

| Structure (SMILES) | Degradation assay (Degradation %) 1 μM [2] [%] | Degradation assay (Degradation %) 10 μM [2] [%] | Kd [3] [nM] | Necroptosis inhibition assay (Rescue %) 1 μM [1] [%] | Necroptosis inhibition assay (Rescue %) 10 μM [1] [%] |
| --- | --- | --- | --- | --- | --- |
| Nc1ncc(-c2cnn(C3CCN(CCC4CCN(C(=O)CNc5cccc6c5C(=O)N(C5CCC(=O)NC5=O)C6=O)CC4)CC3)c2)nc1C(=O)O[C@@H](C(=O)Nc1ccc(F)cc1)c1ccccc1 (stereo partly drawn) [TDH-198, (R)-2-((4-fluorophenyl)amino)-2-oxo-1-phenylethyl 3-amino-6-(1-(1-(2-(1-((2-(2,6-dioxopiperidin-3-yl)-1,3-dioxoisoindolin-4-yl)glycyl)piperidin-4-yl)ethyl)piperidin-4-yl)-1H-pyrazol-4-yl)pyrazine-2-carboxylate] | 69.49 | 41.71 | 1.3 | 79.13 | 31.65 |
| Nc1ncc(-c2cnn(C3CCN(CCC4CCN(C(=O)CNc5ccc6c(c5)C(=O)N(C5CCC(=O)NC5=O)C6=O)CC4)CC3)c2)nc1C(=O)O[C@@H](C(=O)Nc1ccc(F)cc1)c1ccccc1 (stereo partly drawn) [TDH-199, (R)-2-((4-fluorophenyl)amino)-2-oxo-1-phenylethyl 3-amino-6-(1-(1-(2-(1-((2-(2,6-dioxopiperidin-3-yl)-1,3-dioxoisoindolin-5-yl)glycyl)piperidin-4-yl)ethyl)piperidin-4-yl)-1H-pyrazol-4-yl)pyrazine-2-carboxylate] | 61.77 | 38.35 | 1.7 | 36.93 | 18 |
| Nc1ncc(-c2cnn(C3CCN(CCC4CCN(C(=O)COc5ccc6c(c5)C(=O)N(C5CCC(=O)NC5=O)C6=O)CC4)CC3)c2)nc1C(=O)O[C@@H](C(=O)Nc1ccc(F)cc1)c1ccccc1 (stereo partly drawn) [TDH-201, (R)-2-((4-fluorophenyl)amino)-2-oxo-1-phenylethyl 3-amino-6-(1-(1-(2-(1-(2-((2-(2,6-dioxopiperidin-3-yl)-1,3-dioxoisoindolin-5-yl)oxy)acetyl)piperidin-4-yl)ethyl)piperidin-4-yl)-1H-pyrazol-4-yl)pyrazine-2-carboxylate] | 85.96 | 82.98 | 1.3 | 91.53 | 62.79 |
| Nc1ncc(-c2cnn(C3CCN(CCC4CCN(c5ccc6c(c5)C(=O)N(C5CCC(=O)NC5=O)C6=O)CC4)CC3)c2)nc1C(=O)O[C@@H](C(=O)Nc1ccc(F)cc1)c1ccccc1 (stereo partly drawn) [TDH-203, (R)-2-((4-fluorophenyl)amino)-2-oxo-1-phenylethyl 3-amino-6-(1-(1-(2-(1-(2-(2,6-dioxopiperidin-3-yl)-1,3-dioxoisoindolin-5-yl)piperidin-4-yl)ethyl)piperidin-4-yl)-1H-pyrazol-4-yl)pyrazine-2-carboxylate] | 61.41 | 34.74 | 3.2 | 64.32 | 40.46 |
| Nc1ncc(-c2cnn(C3CCN(CC4CCN(C(=O)CNc5ccc6c(c5)C(=O)N(C5CCC(=O)NC5=O)C6=O)CC4)CC3)c2)nc1C(=O)N[C@@H](C(=O)Nc1ccc(F)cc1)c1ccccc1 (stereo partly drawn) [TDH-207, 3-amino-6-(1-(1-((1-((2-(2,6-dioxopiperidin-3-yl)-1,3-dioxoisoindolin-5-yl)glycyl)piperidin-4-yl)methyl)piperidin-4-yl)-1H-pyrazol-4-yl)-N-((R)-2-((4-fluorophenyl)amino)-2-oxo-1-phenylethyl)pyrazine-2-carboxamide] | 17.98 | 24.18 | 210 | 28.69 | 32.45 |
| Cc1ncsc1-c1ccc(CNC(=O)[C@@H]2C[C@@H](O)CN2C(=O)[C@@H](NC(=O)CN2CCC(CN3CCC(n4cc(-c5cnc(N)c(C(=O)O[C@@H](C(=O)Nc6ccc(F)cc6)c6ccccc6)n5)cn4)CC3)CC2)C(C)(C)C)cc1 [TDH-211, (R)-2-((4-fluorophenyl)amino)-2-oxo-1-phenylethyl 3-amino-6-(1-(1-((1-(2-(((S)-1-((2S,4R)-4-hydroxy-2-((4-(4-methylthiazol-5-yl)benzyl)carbamoyl)pyrrolidin-1-yl)-3,3-dimethyl-1-oxobutan-2-yl)amino)-2-oxoethyl)piperidin-4-yl)methyl)piperidin-4-yl)-1H-pyrazol-4-yl)pyrazine-2-carboxylate] | 9.7 | 29.62 | 6.3 | 29.87 | 41.58 |

More lines, in order of falling Kd [3], values ahead:

| Degradation assay (Degradation %) 1 μM [2] [%] | Degradation assay (Degradation %) 10 μM [2] [%] | Kd [3] [nM] | Structure (SMILES) | Necroptosis inhibition assay (Rescue %) 1 μM [1] [%] | Necroptosis inhibition assay (Rescue %) 10 μM [1] [%] |
| --- | --- | --- | --- | --- | --- |
| 7.36 | – | 140 | Nc1ncc(-c2cnn(C3CCN(CC4CCN(C(=O)C5CCN(c6cccc7c6C(=O)N(C6CCC(=O)NC6=O)C7=O)CC5)CC4)CC3)c2)nc1C(=O)N[C@@H](C(=O)Nc1ccc(F)cc1)c1ccccc1 (stereo partly drawn) [TDH-209, 3-amino-6-(1-(1-((1-(1-(2-(2,6-dioxopiperidin-3-yl)-1,3-dioxoisoindolin-4-yl)piperidine-4-carbonyl)piperidin-4-yl)methyl)piperidin-4-yl)-1H-pyrazol-4-yl)-N-((R)-2-((4-fluorophenyl)amino)-2-oxo-1-phenylethyl)pyrazine-2-carboxamide] | 7.73 | 18.12 |
| 57.56 | 36.05 | 6.7 | Nc1ncc(-c2cnn(C3CCN(CC4CCN(C(=O)CC5CCN(c6ccc7c(c6)C(=O)N(C6CCC(=O)NC6=O)C7=O)CC5)CC4)CC3)c2)nc1C(=O)O[C@@H](C(=O)Nc1ccc(F)cc1)c1ccccc1 (stereo partly drawn) [TDH-205, (R)-2-((4-fluorophenyl)amino)-2-oxo-1-phenylethyl 3-amino-6-(1-(1-((1-(2-(1-(2-(2,6-dioxopiperidin-3-yl)-1,3-dioxoisoindolin-5-yl)piperidin-4-yl)acetyl)piperidin-4-yl)methyl)piperidin-4-yl)-1H-pyrazol-4-yl)pyrazine-2-carboxylate] | 59.88 | 41.34 |
| 70 | 53.96 | 4.2 | Nc1ncc(-c2cnn(C3CCN(CC4CCN(C(=O)CC5CCN(c6cccc7c6C(=O)N(C6CCC(=O)NC6=O)C7=O)CC5)CC4)CC3)c2)nc1C(=O)O[C@@H](C(=O)Nc1ccc(F)cc1)c1ccccc1 (stereo partly drawn) [TDH-204, (R)-2-((4-fluorophenyl)amino)-2-oxo-1-phenylethyl 3-amino-6-(1-(1-((1-(2-(1-(2-(2,6-dioxopiperidin-3-yl)-1,3-dioxoisoindolin-4-yl)piperidin-4-yl)acetyl)piperidin-4-yl)methyl)piperidin-4-yl)-1H-pyrazol-4-yl)pyrazine-2-carboxylate] | 61.24 | 38.71 |
| 65.39 | 53.78 | 2.1 | Nc1ncc(-c2cnn(C3CCN(CCC4CCN(c5cccc6c5C(=O)N(C5CCC(=O)NC5=O)C6=O)CC4)CC3)c2)nc1C(=O)O[C@@H](C(=O)Nc1ccc(F)cc1)c1ccccc1 (stereo partly drawn) [TDH-202, (R)-2-((4-fluorophenyl)amino)-2-oxo-1-phenylethyl 3-amino-6-(1-(1-(2-(1-(2-(2,6-dioxopiperidin-3-yl)-1,3-dioxoisoindolin-4-yl)piperidin-4-yl)ethyl)piperidin-4-yl)-1H-pyrazol-4-yl)pyrazine-2-carboxylate] | 60.16 | 29.13 |
| 74.03 | 60.19 | 1 | Nc1ncc(-c2cnn(C3CCN(CCC4CCN(C(=O)COc5cccc6c5C(=O)N(C5CCC(=O)NC5=O)C6=O)CC4)CC3)c2)nc1C(=O)O[C@@H](C(=O)Nc1ccc(F)cc1)c1ccccc1 (stereo partly drawn) [TDH-200, (R)-2-((4-fluorophenyl)amino)-2-oxo-1-phenylethyl 3-amino-6-(1-(1-(2-(1-(2-((2-(2,6-dioxopiperidin-3-yl)-1,3-dioxoisoindolin-4-yl)oxy)acetyl)piperidin-4-yl)ethyl)piperidin-4-yl)-1H-pyrazol-4-yl)pyrazine-2-carboxylate] | 76.41 | 44.64 |
